What is called Ki is the dissociation constant of the complex between target and ligand, obtained from inhibition or displacement. Read a high Ki as weaker binding.

This note sets out measurements from patent US8609681B2, “Spirocyclic nitriles as protease inhibitors” (Sanofi, priority 2006, dated 2013).

Holding throughout (format): biochemical
Holding throughout (settings): Ki from IC50 by Cheng-Prusoff equation

Test [1] has as its target catalytic domain of human Cathepsin K (Homo sapiens (Human), UniProt P43235). The test is described as follows: Enzymatic activity of the catalytic domain of human Cathepsin K (fluorogenic substrate Boc-Ala-Gly-Pro-Arg-AMC). Here is the method: (§1) The enzyme is activated as follows:
1 part by volume of enzyme is admixed with 4 parts by volume of cysteine solution and diluted with the acetate/Hepes buffer to a concentration of 0.22 μg/ml.
(§2) To measure the enzyme activity, 10 μl of enzyme solution are incubated with 10 μl of a 3% (v/v) aqueous dimethyl sulfoxide solution (reaction 1) for 10 minutes. To measure the enzyme inhibitor activity, 10 μl of enzyme solution are incubated with 10 μl of a 3% (v/v) aqueous dimethyl sulfoxide solution which contains the enzyme inhibitor (reaction 2).
(§3) Both in reaction 1 and in reaction 2, after addition of 10 μl of a 3% (v/v) aqueous dimethyl sulfoxide solution which contains 0.3 mmol/l of the substrate, the enzyme reaction is monitored by fluorescence spectroscopy (360 nm (excitation)/465 nm (emission)).
(§4) The enzyme activity is shown as fluorescence increase/minute.
(§5) The inhibitor action is calculated as the percentage inhibition by the following formula: % inhibition=100−[(fluorescence increase/minute in reaction 2)/(fluorescence increase/minute in reaction 1)×100].
(§6) The IC50, which is the inhibitor concentration required for a 50% inhibition in the enzyme activity, is determined graphically by plotting the percentage inhibitions at different inhibitor concentrations.
(§7) The cysteine solution contains 0.3 mol/l of cysteine in water. The acetate/Hepes buffer contains 0.15 mol/l of sodium acetate, 0.15 mol/l of Hepes, 0.3 mol/l of sodium chloride and 0.001% Pluronic (Sigma, Deisenhofen, Germany) pH 6.5.
The enzyme solution contains 0.22 μg/ml of the enzyme domain.
The substrate solution contains 0.3 mmol/l of the fluorogenic substrate Boc-Ala-Gly-Pro-Arg-AMC (Bachem, Heidelberg, Germany).
(§8) Corresponding Ki values are obtained by applying the Cheng-Prusoff equation: Ki=Ki,app/(1+[S]/KM); where Ki,app=IC50
(§9) (Ki,app is the concentration of the competing substance which leads to 50% inhibition of the enzymatic activity at a substrate concentration [S])

The target of test [2] is catalytic domain of human Cathepsin B (Homo sapiens (Human), UniProt P07858). The test is described as follows: Enzymatic activity of the catalytic domain of human Cathepsin B (fluorogenic substrate Z-Arg-Arg-AMC). Here is the method:
as §1
25 μg of enzyme are diluted with acetate buffer to a concentration of 12.5 μg/ml. 1 part by volume of enzyme is admixed with 20 parts by volume of cysteine solution and diluted with the acetate/Hepes buffer to a concentration of 0.11 μg/ml and incubated at 37° C. for 5 minutes.
as §2, §3, §4
The inhibitor action is calculated as the percentage inhibition by the following formula: inhibition=100−[(fluorescence increase/minute in reaction 2)/(fluorescence increase/minute in reaction 1)×100].
as §6
The acetate buffer contains 0.1 mol/l of sodium acetate, 0.1 mol/l of sodium chloride and 0.001% Pluronic (Sigma, Deisenhofen, Germany) pH 4.5.
as §7
The enzyme solution contains 0.11 μg/ml of the enzyme domain.
The substrate solution contains 0.3 mmol/l of the fluorogenic substrate […] (Bachem, Heidelberg, Germany).
as §8, §9

In test [3] the target is catalytic domain of human Cathepsin S (Homo sapiens (Human), UniProt P25774). The test is described as follows: Enzymatic activity of the catalytic domain of human Cathepsin S (fluorogenic substrate Z-Val-Val-Arg-AMC). Here is the method:
as §1
5 parts by volume of enzyme are incubated with 20 parts by volume of acetate buffer and 50 parts by volume of cysteine solution at 37° C. for 5 minutes. After the activation of the enzyme, it is diluted with the Tris/HCl buffer to a concentration of 0.65 μg/ml. To measure the enzyme activity, 10 μl of enzyme solution are incubated with 10 μl of a 3% (v/v) aqueous dimethyl sulfoxide solution (reaction 1) for 10 minutes. To measure the enzyme inhibitor activity, 10 μl of enzyme solution are incubated with 10 μl of a 3% (v/v) aqueous dimethyl sulfoxide solution which contains the enzyme inhibitor (reaction 2). Both in reaction 1 and in reaction 2, after addition of 10 μl of a 1.5% (v/v) aqueous dimethyl sulfoxide solution which contains 0.15 mmol/l of the substrate, the enzyme reaction is monitored by fluorescence spectroscopy (360 nm (excitation)/465 nm (emission)).
as §4, §5, §6
The acetate buffer contains 0.05 mol/l of sodium acetate, 0.1 mol/l of sodium chloride and 0.001% Pluronic (Sigma, Deisenhofen, Germany) pH 5.5.
The cysteine solution contains 0.3 mol/l of cysteine in water. The Tris/HCl buffer contains 0.1 mol/l of Tris/HCl, 0.04 mol/l of EDTA and 0.001% Pluronic pH=7.5. The enzyme solution contains 0.65 μg/ml of the enzyme domain.
The substrate solution contains 0.15 mmol/l of the fluorogenic substrate Z-Val-Val-Arg-AMC (Bachem, Heidelberg, Germany).
as §8, §9

Chain of catalytic domain of human Cathepsin S (P25774 115-331): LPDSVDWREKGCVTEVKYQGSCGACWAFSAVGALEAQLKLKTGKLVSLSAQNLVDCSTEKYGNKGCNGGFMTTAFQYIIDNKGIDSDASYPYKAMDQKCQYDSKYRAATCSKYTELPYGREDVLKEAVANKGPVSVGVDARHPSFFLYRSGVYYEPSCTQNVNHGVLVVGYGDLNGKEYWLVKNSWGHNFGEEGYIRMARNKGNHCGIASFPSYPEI
Chain of catalytic domain of human Cathepsin K (P43235 115-329): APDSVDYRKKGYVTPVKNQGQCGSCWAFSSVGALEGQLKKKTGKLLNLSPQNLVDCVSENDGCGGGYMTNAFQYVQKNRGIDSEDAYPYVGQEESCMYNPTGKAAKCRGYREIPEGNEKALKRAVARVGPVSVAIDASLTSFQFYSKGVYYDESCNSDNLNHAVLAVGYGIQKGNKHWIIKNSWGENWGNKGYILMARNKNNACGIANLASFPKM

In the case of `CC(F)(F)C[C@H](NS(=O)(=O)N1CCC2(CCCC2)CC1)C(=O)NC1(C#N)CC1` [Example 74, N-(1-Cyanocyclopropyl)-(S)-2-(8-azaspiro[4.5]decane-8-sulfonylamino)-4,4-difluoropentamide], the Ki in test [1] is 150 nM; in test [2], greater than 7100 nM; in test [3], 16 nM.

For the molecule `CC(C)C[C@H](NC(=O)C1CCC2(CC1)OCCO2)C(=O)NC1(C#N)CC1` [Example 35, N—[(S)-1-(1-cyanocyclopropylcarbamoyl)-3-methylbutyl]-1,4-dioxaspiro[4.5]decane-8-carboxamide], the Ki is 31 nM in test [1], greater than 7100 nM in test [2] and 150 nM in test [3].

As to `CC(F)(F)C[C@H](NC(=O)N1CC2(CCN(C3CC3)CC2)C1)C(=O)NC1(C#N)CC1` [Example 83], the Ki in test [1] was found to be 28 nM; in test [2], 2300 nM; in test [3], 8 nM.

As to `CC(F)(F)C[C@H](NC(=O)N1CCC2(CC1)CCN(C1CC1)CC2)C(=O)NC1(C#N)CC1` [Example 56], the results for the Ki in test [1], in test [2] and in test [3] were 7.5 nM, 210 nM and 7.2 nM, respectively.

`N#CC1(NC(=O)[C@H](CC(F)(F)Cc2ccccc2)NC(=O)N2CCC3(CC2)CC3)CC1` [Example 70, N—[(S)-1-(1-cyanocyclopropylcarbamoyl)-3,3-difluoro-4-phenylbutyl]-6-azaspiro[2.5]octane-6-carboxamide]: the inhibitory constant (Ki) in test [1] worked out at 910 nM; in test [2], 110 nM; in test [3], 0.3 nM.

With `CC(F)(F)C[C@H](NC(=O)N1CCOC12CCCCC2)C(=O)NC1(C#N)CC1` [Example 80], the Ki in test [1] was 36 nM; in test [2], 3900 nM; in test [3], 9 nM.

As for `CCCC(F)(F)C[C@H](NC(=O)N1CCC2(CC1)CCN(C1CC1)CC2)C(=O)NC1(C#N)CC1` [Example 94], the Ki in test [1] came out at 24 nM; in test [2], 84 nM; in test [3] it was 2 nM.

With `N#CC1(NC(=O)C2(NC(=O)N3CCC4(CCCC4)CC3)CCCCC2)CC1` [Example 53], the inhibition constant (Ki) in test [1] came out at 4.5 nM; in test [2], 1500 nM; in test [3], 53 nM.

Turning to `CC(F)(F)C[C@H](NC(=O)N1CCC2(CCCC2)CC1)C(=O)NC1(C#N)CC1` [Example 36], the Ki was found to be 3 nM in test [1], 44 nM in test [2] and 2 nM in test [3].

`CC(F)(F)C[C@H](NC(=O)N1CCC2(CC1)OCc1ccccc12)C(=O)NC1(C#N)CC1` [Example 78]: the figures for the Ki in test [1], in test [2] and in test [3] were 38 nM, 530 nM and 19 nM, respectively.

Regarding `N#CC1(NC(=O)[C@H](CC(F)(F)Cc2ccccc2)NC(=O)N2CCC3(CC2)CCN(C2CC2)CC3)CC1` [Example 97], the Ki in test [1] is 400 nM; in test [2], 100 nM; in test [3], 1 nM.

As for `CC(F)(F)C[C@H](NC(=O)N1CCC2(CCCCC2)CC1)C(=O)NC1(C#N)CC1` [Example 9, N—[(S)-1-(1-cyanocyclopropylcarbamoyl)-3,3-difluorobutyl]-3-azaspiro[5.5]undecane-3-carboxamide], the results for the Ki in test [1], in test [2] and in test [3] were 1.8 nM, 46 nM and 3.2 nM, respectively.

Consider `CC(F)(F)C[C@H](NC(=O)N1CCC2(CC1)CC(=O)N(CC1CC1)C2)C(=O)NC1(C#N)CC1` [Example 88], for which the Ki in test [1] came out at 15 nM; in test [2] it was 310 nM; in test [3] it was 9 nM.

Turning to `CC(F)(F)C[C@H](NC(=O)N1CCC2(CC1)C(=O)NCN2c1ccccc1)C(=O)NC1(C#N)CC1` [Example 42], the figures for the Ki in test [1], in test [2] and in test [3] were 32 nM, 4500 nM and 11 nM, respectively.

Take `CC(F)(F)C[C@H](NC(=O)N1CCC2(CC1)NCC(C)(C)CO2)C(=O)NC1(C#N)CC1` [Example 45]: the Ki is 21 nM in test [1], 1200 nM in test [2] and 24 nM in test [3].

With `CCCC(F)(F)C[C@H](NC(=O)N1CCC2(CC1)CCN(c1ccc(OC)cc1)C2)C(=O)NC1(C#N)CC1` [Example 91], the Ki in test [1] amounted to 43 nM; in test [2] it was 140 nM; in test [3] it was 2 nM.

Turning to `CC(F)(F)C[C@H](NC(=O)N1CCC2(CCCCC2)C1)C(=O)NC1(C#N)CC1` [Example 77], the Ki in test [1] was found to be 20 nM; in test [2], 220 nM; in test [3], 7 nM.

For `CC(F)(F)C[C@H](NC(=O)N1CCC2(CC1)OCCO2)C(=O)NC1(C#N)CC1` [Example 37], the figures for the Ki in test [1], in test [2] and in test [3] were 21 nM, 560 nM and 13 nM, respectively.

Consider `CCCC(F)(F)C[C@H](NC(=O)N1CCC2(CC1)CC2)C(=O)NC1(C#N)CC1` [Example 102], for which the Ki was 33 nM in test [1], 62 nM in test [2] and 0.5 nM in test [3].

In the case of `CC(F)(F)C[C@H](NC(=O)N1CCC2(CC1)CCC(C)(C)O2)C(=O)NC1(C#N)CC1` [Example 76], the Ki is 47 nM in test [1], 930 nM in test [2] and 22 nM in test [3].

For the molecule `CC(F)(F)C[C@H](NC(=O)N1CCC2(CC1)CC2)C(=O)NC1(C#N)CC1` [Example 63, N—[(S)-1-(1-cyanocyclopropylcarbamoyl)-3,3-difluorobutyl]-6-azaspiro[2.5]octane-6-carboxamide], the Ki in test [1] came to 22 nM; in test [2] it was 260 nM; in test [3], 5 nM.

In the case of `CC(F)(F)C[C@H](NC(=O)N1CCC2(CCCc3ccccc32)C1)C(=O)NC1(C#N)CC1` (stereo partly drawn) [Example 79], the Ki in test [1] is 16 nM; in test [2], 620 nM; in test [3] it was 9 nM.

With `CN1CCC(C#N)(NC(=O)[C@H](CC(C)(F)F)NC(=O)N2CCC3(CC2)CC3)CC1` [Example 103], the Ki came out at 84 nM in test [1], 99 nM in test [2] and 27 nM in test [3].

With `CC(F)(F)C[C@H](NC(=O)N1CCC2(CC1)CCN(Cc1ccccc1)C2=O)C(=O)NC1(C#N)CC1` [Example 49], the Ki in test [1] came to 52 nM; in test [2] it was 2200 nM; in test [3], 16 nM.
